Laboratory results as given in patent US20130338092A1, “COMPOUNDS AND METHODS FOR TARGETING LEUKEMIC STEM CELLS” (The Broad Institute, Inc., priority 2011, published 2013).
Entries after “also recorded” stand apart in the source; their conditions may differ. Read-outs that look alike come from different tables or passages of the source.

Assays:
MLL-AF9 LSC = test: Triple coculture (LSCs and HSPCs on primary MSCs), leukemia cells; format: cell-based, murine; conditions: for leukemic cells in triple coculture: 200 nM lovastatic acid or 1 μM BRD7116, 5 days; for IC50: Mus musculus, MLL-AF9, murine LSCs in triple coculture with HSPCs on MSCs
Experimental: (§1) As in the original assay approach, treatment of these triple cocultures began one day after hematopoietic cell plating and was assessed 5 days later.
(§2) An in vitro therapeutic index was determined for each compound, a comparative measure of the potential for anti-LSC efficacy relative to the potential for dose-limiting toxicities to normal HSCs (myeloablation), or to normal progenitors (myelosuppression). Specifically, ratios were created using the IC50s for primary murine HSPCs in triple coculture as the numerator, and the IC50s for primary murine leukemia inhibition in triple coculture as the denominator, toward assessing the potential for HSC harm relative to LSC inhibition.

normal murine HSPCs = test: Triple coculture (LSCs and HSPCs on primary MSCs), normal HSPCs; conditions: for IC50: Mus musculus, read-out: Normal HSPC* IC50
Experimental: as §1, §2

primary leukemia cells = test: Annexin V apoptosis assay; format: cell-based, murine; conditions: 22 hours in suspension, compared to DMSO control
Experimental: Compounds were added to a final DMSO concentration of 0.02%. […] The cells were analyzed by flow cytometry on a FacsCanto II (Becton Dickinson).

normal HSPCs = test: Normal HSPC coculture on primary MSC stroma; conditions: for IC50: Mus musculus
Experimental: The material was cleaned, crushed and sequentially passed through 100 and 70 μM filters (Falcon). […] The biotin-labeled cells were spun down, resuspended in 0.5% FBS in PBS, and incubated for 15-30 minutes at 4° C. with agitation with 1 mL of Dynabead M-280 streptavidin-linked magnetic beads per 4 mice. The bead-linked cells were depleted using magnetic separation and rinsed once. The lineage- and CD48-depleted cell fraction was labeled with streptavidin-APC-Cy7 antibody from BD Biosciences and c-kit-APC, Sca-1-FITC, CD48-Pacific Blue, and CD150 PE-Cy7 antibodies from eBioscience. DsRed-positive lineage-Sca-1+c-kit+CD48− HSCs were sorted using a FACS DiVa or FACS ARIA (BD Biosciences).
A total of 20 μL of 20 μg/mL fibronectin (Millipore) in PBS was added to each well of a 384-well clear-bottomed black tissue-culture treated plate (Corning) and incubated for 30-120 minutes at 33° C. or 37° C. […] The fibronectin solution was removed from each well using a 24-channel wand aspirator; then 30 μL of BMSC solution was added to plate 2000 BMSCs/well. […] Each plate was covered with a sterile rayon breathable membrane (VWR) and plastic lid, and then spun at 500 rpm (approximately 60× gravity) with slow braking. The plates were incubated at room temperature for 60-90 minutes before incubation at 33° C. with 5% CO2 for 3 days prior to HSC addition.
The sorted HSCs, SLAMs and progenitor cells were resuspended in phenol-red free alpha-MEM with 20% FBS and diluted to 10,000 cells/mL. A total of 20 μL of cell solution containing 200 hematopoietic cells was added to each well using a multichannel pipettor or liquid-dispensing system. Each plate was covered with a sterile rayon breathable membrane (VWR) and plastic lid, and then spun at 500 rpm (approximately 60×gravity) with slow braking. The plates were incubated at room temperature for 60-90 minutes before incubation at 33° C. with 5% CO2 overnight prior to compound or cytokine addition.
Image analysis was performed using MetaXpress software from MDC and CellProfiler software from the Broad Institute of Harvard and MIT.
Compound addition and incubation was performed as described for the LSC coculture screen above, but without a media change or readdition of the compound.
The selected set was screened in 8-point dose against both normal HSPCs with a high number of replicates (6) and LSC-enriched leukemia cells, each cocultured on primary MSCs.

[1] = test system: LSC-enriched leukemia cells (MLL-AF9); test: Leukemia coculture assay on primary MSC stroma (cobblestoning readout); format: cell-based, murine; conditions: for IC50: read-out: Leukemia IC50; for leukemia-selective activity in coculture vs normal HSPCs: primary MSC stroma
Experimental: Whole bone marrow were harvested from C57/B16 actin-dsRed mice (006051, Jackson Labs), subjected to red blood cell lysis (Qiagen), then granulocyte-macrophage progenitors (GMPs) were isolated by Fluorescence-activated cell sorting (FACsAria, Becton Dickinson). GMPs were spinfected twice (2500 rpm, 90 min, 37 C) in the presence of mIL3 (10 ng/ml, Peprotech), mIL6 (10 ng/ml, Peprotech), and mSCF (10 ng/ml, Peprotech) with pMSCV-MLL-AF9-Neo virus then transplanted into lethally irradiated C57/B16 recipients. After disease onset, the spleens were harvested and transplanted into sublethally irradiated secondary recipients. Subsequent transplantation of bulk spleen cells from leukemic secondary mice was repeated twice to generate leukemic GMPs from quaternary transplant leukemic mouse bone marrow.
Long bones and hips from moribund leukemic mice were harvested, cleaned, crushed and sequentially passed through 100 and 70 μM filters (Falcon). The cells were RBC lysed (Qiagen) and stained in PBS+2% FBS (Omega). Antibodies included lineage markers CD4, CD8, Gr1, Mac1, IL-7R, and Ter119 (Caltag), c-kit (17-1172-83, eBioscience), Sca-1 (11-5981-82, eBioscience), CD34 (11-0341-85, eBioscience), and CD16/32 (25-0161-82, eBioscience). Hoechst 33258 (H21491, Invitrogen) was also used, to identify live cells. Cells were sorted on a FacsAria II (Becton Dickinson).
The humerii, tibiae, ilia, femurs, and spine were isolated from actin-GFP mice (000329, Jackson Lab) crushed using a mortar and pestle, washed in phosphate-buffered saline (PBS) without magnesium and calcium (Gibco) with 0.5% fetal bovine serum (FBS) (HyClone) and filtered through a 70-μm filter. Red blood cell lysis was performed with ammonium-chloride/potassium-chloride (ACK) lysing buffer (Lonza), the cells were resuspended in α-MEM (StemCell Technologies), 20% FBS (HyClone) and 1× Pen-Strep (CellGro), plated in 25 ml in 150-cm^2 tissue-culture flasks (three per mouse), and incubated at 33° C. with 5% CO2. After 2-3 days, the medium was replaced with fresh α-MEM with 20% FBS. After 8-14 days, the cells were rinsed, split by trypsinization (CellGro), pooled, filtered through a 70 μm filter, replated at 3-4 million cells per 150-cm^2 tissue-culture flask, and grown at 33° C. with 5% CO2 for 3-4 days until nearly confluent. The cells were trypsinized, filtered, and resuspended in 0.5% FBS in PBS with biotin-conjugated anti-mouse CD105 antibody (eBioscience) for 15-30 minutes at room temperature. The CD105-labeled cells were incubated with Dynabead M-280 streptavidin-linked magnetic beads (Invitrogen) for 15-30 minutes at 4° C. with agitation and isolated using magnetic separation and rinsed once. The CD105^+ cell fraction was replated at 1-2 million cells per 150-cm^2 tissue-culture flask and incubated at 33° C. with 5% CO2 for 2-3 days.
The MSCs were trypsinized, filtered, diluted in phenol-red-free alpha-MEM with 20% FBS, and plated (30 μl for a total of 2000 cells per well) on 384-well clear-bottomed black tissue-culture treated plate (3712, Corning) pretreated with fibronectin (Millipore). Plate covers (VWR) were added, the plates were spun and at 500 with slow braking, and the cells were incubated at room temperature for 60-90 minutes before incubation at 33° C. with 5% CO2 for 3 days prior to hematopoietic cell plating. […]

[2] = read-out: Normal IC50, HSPCs on primary MSC stroma, 8-point dose
[3] = Mus musculus, MLL-AF9, LSCs on primary MSC stroma, 8-point dose

CC1(C)C(C(=O)Nc2ccc(S(=O)(=O)c3ccc(NC(=O)C4C(C)(C)C4(C)C)cc3)cc2)C1(C)C [BRD7116]
leukemic cells in triple coculture (MLL-AF9 LSC): selective loss of the leukemia population; also recorded: selectively cleared the dsRed^+ leukemic cells | IC50 (MLL-AF9 LSC): 0.5 µM | IC50 (normal murine HSPCs): 5 µM | induction of apoptosis (Annexin V) (primary leukemia cells): mild induction of apoptosis | IC50 (normal HSPCs; [2]): > 20 µM | IC50 [1, 3]: 0.204 µM | leukemia-selective activity in coculture vs normal HSPCs [1]: selective loss of the LSC-enriched leukemia cells

CCC(C)C(=O)OC1CC(C)C=C2C=CC(C)C(CCC(O)CC(O)CC(=O)O)C21 (centres unmarked) [Lovastatic acid]
leukemic cells in triple coculture (MLL-AF9 LSC): selectively cleared the dsRed^+ leukemic cells | leukemic cells in triple coculture (MLL-AF9 LSC; listed as lovastatin): selective loss of the leukemia population | IC50 (MLL-AF9 LSC): 0.1 µM | normal HSPCs in triple coculture (normal murine HSPCs; 200 nM lovastatic acid or 1 μM BRD7116, 5 days): continued to display healthy, cobblestoned morphologies | IC50 (normal murine HSPCs): 0.8 µM | induction of apoptosis (Annexin V) (primary leukemia cells): underwent apoptosis | IC50 (normal HSPCs; [2]): > 20 µM | IC50 (normal HSPCs; read-out: Normal IC50, statins (acid form), HSPCs cocultured on primary MSC stroma): > 10 µM | effect on normal HSPCs in coculture (normal HSPCs; up to 20 μM, the maximum dose tested): minimal toxicity | IC50 ([1]; LSCs on primary MSC stroma, 8-point dose): 0.167 µM | IC50 [1, 3]: < 0.2 µM | IC50 ([1]; Mus musculus, MLL-AF9, statins (acid form), LSCs cocultured on primary MSC stroma): < 0.2 µM | leukemia-selective activity in coculture vs normal HSPCs [1]: leukemia-selective activity
